Test: Stability of QC samples in rat plasma and tissue homogenates under different storage conditions
Type: in vitro ADME
Conditions: in % (unit assumed)

C/C=C1/COC(=O)[C@H]2C(=O)N3CCc4c([nH]c5ccccc45)[C@@H]3C[C@@H]12 [Naucleactonin C]
Accuracy, Ambient temperature for 4 h (Brain, 5 ng/mL): 106.35 ± 11.82
Accuracy, Autosampler at 4°C for 8 h (Brain, 5 ng/mL): 109.83 ± 6.05
Accuracy, Three freeze-thraw cycles (Brain, 5 ng/mL): 98.92 ± 10.65
Accuracy, −80°C for 30 days (Brain, 5 ng/mL): 104.10 ± 10.88
Accuracy, Ambient temperature for 4 h (Brain, 8 ng/mL): 88.87 ± 10.43
Accuracy, Autosampler at 4°C for 8 h (Brain, 8 ng/mL): 90.65 ± 6.37
Accuracy, Three freeze-thraw cycles (Brain, 8 ng/mL): 89.95 ± 9.23
Accuracy, −80°C for 30 days (Brain, 8 ng/mL): 88.82 ± 10.57
Accuracy, Ambient temperature for 4 h (Brain, 140 ng/mL): 88.33 ± 6.74
Accuracy, Autosampler at 4°C for 8 h (Brain, 140 ng/mL): 87.92 ± 8.15
Accuracy, Three freeze-thraw cycles (Brain, 140 ng/mL): 87.20 ± 4.98
Accuracy, −80°C for 30 days (Brain, 140 ng/mL): 87.93 ± 5.81
Accuracy, Ambient temperature for 4 h (Brain, 2400 ng/mL): 99.43 ± 6.38
Accuracy, Autosampler at 4°C for 8 h (Brain, 2400 ng/mL): 112.67 ± 6.62
Accuracy, Three freeze-thraw cycles (Brain, 2400 ng/mL): 109.67 ± 6.44
Accuracy, −80°C for 30 days (Brain, 2400 ng/mL): 109.00 ± 5.22
Accuracy, Ambient temperature for 4 h (Heart, 5 ng/mL): 111.97 ± 11.63
Accuracy, Autosampler at 4°C for 8 h (Heart, 5 ng/mL): 100.78 ± 9.63
Accuracy, Three freeze-thraw cycles (Heart, 5 ng/mL): 107.98 ± 9.45
Accuracy, −80°C for 30 days (Heart, 5 ng/mL): 107.42 ± 10.24
Accuracy, Ambient temperature for 4 h (Heart, 8 ng/mL): 110.50 ± 4.42
Accuracy, Autosampler at 4°C for 8 h (Heart, 8 ng/mL): 107.25 ± 9.25
Accuracy, Three freeze-thraw cycles (Heart, 8 ng/mL): 109.08 ± 8.25
Accuracy, −80°C for 30 days (Heart, 8 ng/mL): 110.87 ± 9.04
Accuracy, Ambient temperature for 4 h (Heart, 140 ng/mL): 102.78 ± 6.89
Accuracy, Autosampler at 4°C for 8 h (Heart, 140 ng/mL): 104.88 ± 3.80
Accuracy, Three freeze-thraw cycles (Heart, 140 ng/mL): 100.40 ± 9.13
Accuracy, −80°C for 30 days (Heart, 140 ng/mL): 98.28 ± 5.70
Accuracy, Ambient temperature for 4 h (Heart, 2400 ng/mL): 112.33 ± 10.41
Accuracy, Autosampler at 4°C for 8 h (Heart, 2400 ng/mL): 111.50 ± 5.68
Accuracy, Three freeze-thraw cycles (Heart, 2400 ng/mL): 112.33 ± 5.72
Accuracy, −80°C for 30 days (Heart, 2400 ng/mL): 110.50 ± 4.81
Accuracy, Ambient temperature for 4 h (Kidney, 5 ng/mL): 109.33 ± 7.55
Accuracy, Autosampler at 4°C for 8 h (Kidney, 5 ng/mL): 106.08 ± 8.96
Accuracy, Three freeze-thraw cycles (Kidney, 5 ng/mL): 98.92 ± 9.91
Accuracy, −80°C for 30 days (Kidney, 5 ng/mL): 97.18 ± 10.46
Accuracy, Ambient temperature for 4 h (Kidney, 8 ng/mL): 99.10 ± 4.24
Accuracy, Autosampler at 4°C for 8 h (Kidney, 8 ng/mL): 97.38 ± 7.31
Accuracy, Three freeze-thraw cycles (Kidney, 8 ng/mL): 91.10 ± 9.20
Accuracy, −80°C for 30 days (Kidney, 8 ng/mL): 94.77 ± 7.62
Accuracy, Ambient temperature for 4 h (Kidney, 140 ng/mL): 96.08 ± 7.36
Accuracy, Autosampler at 4°C for 8 h (Kidney, 140 ng/mL): 95.43 ± 7.99
Accuracy, Three freeze-thraw cycles (Kidney, 140 ng/mL): 101.10 ± 4.98
Accuracy, −80°C for 30 days (Kidney, 140 ng/mL): 100.25 ± 8.25
Accuracy, Ambient temperature for 4 h (Kidney, 2400 ng/mL): 108.00 ± 5.62
Accuracy, Autosampler at 4°C for 8 h (Kidney, 2400 ng/mL): 103.87 ± 4.68
Accuracy, Three freeze-thraw cycles (Kidney, 2400 ng/mL): 104.57 ± 6.09
Accuracy, −80°C for 30 days (Kidney, 2400 ng/mL): 102.30 ± 5.90
Accuracy, Ambient temperature for 4 h (Liver, 5 ng/mL): 101.78 ± 11.83
Accuracy, Autosampler at 4°C for 8 h (Liver, 5 ng/mL): 107.70 ± 5.36
Accuracy, Three freeze-thraw cycles (Liver, 5 ng/mL): 98.32 ± 6.66
Accuracy, −80°C for 30 days (Liver, 5 ng/mL): 98.38 ± 12.07
Accuracy, Ambient temperature for 4 h (Liver, 8 ng/mL): 87.60 ± 5.90
Accuracy, Autosampler at 4°C for 8 h (Liver, 8 ng/mL): 86.47 ± 4.52
Accuracy, Three freeze-thraw cycles (Liver, 8 ng/mL): 90.60 ± 4.91
Accuracy, −80°C for 30 days (Liver, 8 ng/mL): 86.00 ± 8.60
Accuracy, Ambient temperature for 4 h (Liver, 140 ng/mL): 88.57 ± 2.44
Accuracy, Autosampler at 4°C for 8 h (Liver, 140 ng/mL): 95.00 ± 4.15
Accuracy, Three freeze-thraw cycles (Liver, 140 ng/mL): 96.28 ± 4.36
Accuracy, −80°C for 30 days (Liver, 140 ng/mL): 97.32 ± 7.17
Accuracy, Ambient temperature for 4 h (Liver, 2400 ng/mL): 98.93 ± 3.81
Accuracy, Autosampler at 4°C for 8 h (Liver, 2400 ng/mL): 91.37 ± 2.51
Accuracy, Three freeze-thraw cycles (Liver, 2400 ng/mL): 89.35 ± 3.70
Accuracy, −80°C for 30 days (Liver, 2400 ng/mL): 89.97 ± 7.32
Accuracy, Ambient temperature for 4 h (Lung, 5 ng/mL): 109.50 ± 11.47
Accuracy, Autosampler at 4°C for 8 h (Lung, 5 ng/mL): 100.40 ± 10.26
Accuracy, Three freeze-thraw cycles (Lung, 5 ng/mL): 101.05 ± 5.33
Accuracy, −80°C for 30 days (Lung, 5 ng/mL): 95.98 ± 10.47
Accuracy, Ambient temperature for 4 h (Lung, 8 ng/mL): 94.73 ± 8.92
Accuracy, Autosampler at 4°C for 8 h (Lung, 8 ng/mL): 91.40 ± 9.71
Accuracy, Three freeze-thraw cycles (Lung, 8 ng/mL): 101.90 ± 10.45
Accuracy, −80°C for 30 days (Lung, 8 ng/mL): 99.03 ± 10.49
Accuracy, Ambient temperature for 4 h (Lung, 140 ng/mL): 102.38 ± 4.12
Accuracy, Autosampler at 4°C for 8 h (Lung, 140 ng/mL): 94.45 ± 5.92
Accuracy, Three freeze-thraw cycles (Lung, 140 ng/mL): 93.75 ± 8.53
Accuracy, −80°C for 30 days (Lung, 140 ng/mL): 92.58 ± 3.60
Accuracy, Ambient temperature for 4 h (Lung, 2400 ng/mL): 111.37 ± 9.27
Accuracy, Autosampler at 4°C for 8 h (Lung, 2400 ng/mL): 111.85 ± 9.53
Accuracy, −80°C for 30 days (Lung, 2400 ng/mL): 111.67 ± 3.39
Accuracy, Ambient temperature for 4 h (Plasma, 5 ng/mL): 101.95 ± 10.33
Accuracy, Autosampler at 4°C for 8 h (Plasma, 5 ng/mL): 106.67 ± 10.88
Accuracy, Three freeze-thraw cycles (Plasma, 5 ng/mL): 91.87 ± 8.63
Accuracy, −80°C for 30 days (Plasma, 5 ng/mL): 109.57 ± 12.66
Accuracy, Ambient temperature for 4 h (Plasma, 8 ng/mL): 108.88 ± 1.87
Accuracy, Autosampler at 4°C for 8 h (Plasma, 8 ng/mL): 105.01 ± 6.32
Accuracy, Three freeze-thraw cycles (Plasma, 8 ng/mL): 105.88 ± 1.87
Accuracy, −80°C for 30 days (Plasma, 8 ng/mL): 113.33 ± 5.32
Accuracy, Ambient temperature for 4 h (Plasma, 140 ng/mL): 87.67 ± 9.20
Accuracy, Autosampler at 4°C for 8 h (Plasma, 140 ng/mL): 87.88 ± 4.14
Accuracy, Three freeze-thraw cycles (Plasma, 140 ng/mL): 111.88 ± 1.87
Accuracy, −80°C for 30 days (Plasma, 140 ng/mL): 111.57 ± 9.60
Accuracy, Ambient temperature for 4 h (Plasma, 2400 ng/mL): 88.93 ± 6.01
Accuracy, Autosampler at 4°C for 8 h (Plasma, 2400 ng/mL): 89.25 ± 7.58
Accuracy, Three freeze-thraw cycles (Plasma, 2400 ng/mL): 89.17 ± 7.49
Accuracy, −80°C for 30 days (Plasma, 2400 ng/mL): 113.83 ± 7.14
Accuracy, Ambient temperature for 4 h (Small intestine, 5 ng/mL): 111.90 ± 12.07
Accuracy, Autosampler at 4°C for 8 h (Small intestine, 5 ng/mL): 111.67 ± 8.14
Accuracy, Three freeze-thraw cycles (Small intestine, 5 ng/mL): 111.17 ± 8.33
Accuracy, −80°C for 30 days (Small intestine, 5 ng/mL): 112.67 ± 8.78
Accuracy, Ambient temperature for 4 h (Small intestine, 8 ng/mL): 103.33 ± 3.39
Accuracy, Autosampler at 4°C for 8 h (Small intestine, 8 ng/mL): 100.03 ± 11.46
Accuracy, Three freeze-thraw cycles (Small intestine, 8 ng/mL): 100.60 ± 10.24
Accuracy, −80°C for 30 days (Small intestine, 8 ng/mL): 104.25 ± 9.49
Accuracy, Ambient temperature for 4 h (Small intestine, 140 ng/mL): 88.60 ± 9.48
Accuracy, Autosampler at 4°C for 8 h (Small intestine, 140 ng/mL): 89.80 ± 8.30
Accuracy, Three freeze-thraw cycles (Small intestine, 140 ng/mL): 87.88 ± 5.57
Accuracy, −80°C for 30 days (Small intestine, 140 ng/mL): 90.17 ± 7.26
Accuracy, Ambient temperature for 4 h (Small intestine, 2400 ng/mL): 107.48 ± 8.23
Accuracy, Autosampler at 4°C for 8 h (Small intestine, 2400 ng/mL): 103.75 ± 6.68
Accuracy, Three freeze-thraw cycles (Small intestine, 2400 ng/mL): 108.43 ± 8.65
Accuracy, −80°C for 30 days (Small intestine, 2400 ng/mL): 102.32 ± 8.65
Accuracy, Ambient temperature for 4 h (Spleen, 5 ng/mL): 110.33 ± 8.71
Accuracy, Autosampler at 4°C for 8 h (Spleen, 5 ng/mL): 112.92 ± 8.72
Accuracy, Three freeze-thraw cycles (Spleen, 5 ng/mL): 110.67 ± 8.57
Accuracy, −80°C for 30 days (Spleen, 5 ng/mL): 109.68 ± 12.57
Accuracy, Ambient temperature for 4 h (Spleen, 8 ng/mL): 99.28 ± 13.31
Accuracy, Autosampler at 4°C for 8 h (Spleen, 8 ng/mL): 93.42 ± 8.00
Accuracy, Three freeze-thraw cycles (Spleen, 8 ng/mL): 96.13 ± 11.98
Accuracy, −80°C for 30 days (Spleen, 8 ng/mL): 101.90 ± 10.25
Accuracy, Ambient temperature for 4 h (Spleen, 140 ng/mL): 93.13 ± 6.10
Accuracy, Autosampler at 4°C for 8 h (Spleen, 140 ng/mL): 95.27 ± 7.08
Accuracy, Three freeze-thraw cycles (Spleen, 140 ng/mL): 89.18 ± 8.23
Accuracy, −80°C for 30 days (Spleen, 140 ng/mL): 92.35 ± 2.70
Accuracy, Ambient temperature for 4 h (Spleen, 2400 ng/mL): 103.33 ± 8.37
Accuracy, Autosampler at 4°C for 8 h (Spleen, 2400 ng/mL): 105.67 ± 8.50
Accuracy, Three freeze-thraw cycles (Spleen, 2400 ng/mL): 107.73 ± 8.10
Accuracy, −80°C for 30 days (Spleen, 2400 ng/mL): 109.83 ± 4.96
Accuracy, Ambient temperature for 4 h (Stomach, 5 ng/mL): 111.00 ± 7.90
Accuracy, Autosampler at 4°C for 8 h (Stomach, 5 ng/mL): 112.17 ± 7.25
Accuracy, Three freeze-thraw cycles (Stomach, 5 ng/mL): 113.12 ± 9.97
Accuracy, −80°C for 30 days (Stomach, 5 ng/mL): 113.83 ± 2.99
Accuracy, Ambient temperature for 4 h (Stomach, 8 ng/mL): 107.32 ± 12.96
Accuracy, Autosampler at 4°C for 8 h (Stomach, 8 ng/mL): 98.37 ± 10.75
Accuracy, Three freeze-thraw cycles (Stomach, 8 ng/mL): 105.90 ± 9.13
Accuracy, −80°C for 30 days (Stomach, 8 ng/mL): 103.55 ± 9.49
Accuracy, Ambient temperature for 4 h (Stomach, 140 ng/mL): 88.15 ± 7.91
Accuracy, Autosampler at 4°C for 8 h (Stomach, 140 ng/mL): 86.38 ± 8.38
Accuracy, Three freeze-thraw cycles (Stomach, 140 ng/mL): 87.12 ± 5.24
Accuracy, −80°C for 30 days (Stomach, 140 ng/mL): 88.28 ± 6.31
Accuracy, Ambient temperature for 4 h (Stomach, 2400 ng/mL): 100.53 ± 7.29
Accuracy, Autosampler at 4°C for 8 h (Stomach, 2400 ng/mL): 99.52 ± 5.85
Accuracy, Three freeze-thraw cycles (Stomach, 2400 ng/mL): 104.90 ± 5.53
Accuracy, −80°C for 30 days (Stomach, 2400 ng/mL): 102.32 ± 8.22

— publication PMC9797307, “Measurement of Pharmacokinetics and Tissue Distribution of Four Compounds from Nauclea officinalis in Rat Plasma and Tissues through HPLC-MS/MS” (Journal of Analytical Methods in Chemistry, 2022)
